Test results published in patent publication US9757378B2, “Methods to modulate acute myeloid leukemia stem/progenitor cell expansion and/or differentiation” (UNIVERSITE DE MONTREAL, priority 2013, dated 2017).
“Also recorded” adds a separate entry of the source.

Assays:
[1] = test system: primary human AML cells; assay: Secondary screen: dose response, five serial dilutions (CD34/CD15 flow cytometry); type: cell-based; set-up: key to 2ndary screen criteria fulfilled: 0 = no; 1 = yes
Method: In the primary screen cells were plated in transparent 384-wellplates (Greiner, 781182) at a density of 5,000 cells in 50 μl final volume per well. Compounds were tested at 2 μM (commercial libraries) or 1 μg/ml (Medicinal Chemistry Facility, IRIC). […] For validation experiments AML cells were grown in 384-well plates with 3-8 replicates per condition.
Flow cytometry was performed on an LSR™ II cytometer equipped with an HTS-device (BD Bioscience, Primary and Secondary screens and in vitro validation experiments) or on a BD Canto™ II cytometer (BD Bioscience, Xenotransplantation and CellTrace Violet™ experiments). Cells were stained for 30 minutes at 4° C. protected from light if not otherwise indicated (CellTrace Violet™ staining). The following flow cytometry-antibodies were used: CD45 Pacific Blue (BioLegend 304029), CD33 PE (BD Bioscience 555450), CD34 APC (BD Bioscience 555824), CD3 FITC (BD Bioscience 555332), CD19 PE-Cy7 (BD Bioscience 557835), CD15 PE (BD Bioscience 555401), and anti-mouse CD45.1 APC-efluor 730 (eBioscience 47-0453-82). CD34 intensities in flow cytometry plots were set at high levels on day 0 to allow tracing of non-predictable decreases of intensities during 7 days in culture.

[2] = test system: AhR target genes CYP1A1, CYP1B1 and AHRR; assay: AhR target gene expression by q-RT-PCR in AML cells; type: cell-based, human; conditions: for upregulation of AhR target genes AHRR and CYP1A1 upon 24 h in vitro culture: SR1 500 nM, TCDD 0.1, 1, 10 nM, n=13 samples
Text: RNA was isolated from primary AML samples using Trizol® reagent according to the manufacturer's instructions (Invitrogen/Life Technologies) and reverse transcribed into cDNA using MMLV reverse transcriptase and random primers. 2× Fast Master Mix® containing primers described below and probes from the Universal Probe Library® (Roche Diagnostics) were used for q-RT-PCR reactions which were amplified in 2-3 technical replicates on an ABI 7900HT Fast Real-Time® PCR System (Applied Biosystems/Life Technologies). Analysis was done with SDS 2.2.2 software (Applied Biosystems/Life Technologies) using the comparative delta CT method with GAPDH as reference gene. The following primers and probes were used: GAPDH: 5′-[…]-3′ (forward, SEQ ID NO:7), 5′-[…]-3′ (reverse, SEQ ID NO:8), probe 60, CYP1A1: 5′-[…]-3′ (forward, SEQ ID NO:9), 5′-[…]-3′ (reverse, SEQ ID NO:10), probe 59, CYP1B1: 5′-[…]-3′ (forward, SEQ ID NO:11), 5′-[…]-3′ (reverse, SEQ ID NO:12), probe 20, AHRR: 5′-[…]-3′ (forward, SEQ ID NO:13), 5′-[…]-3′ (reverse, SEQ ID NO:14), probe 72, AHR: 5′-[…]-3′ (forward, SEQ ID NO:15), 5′-[…]-3′ (reverse, SEQ ID NO:16), probe 33.

[3] = test system: primary human AML specimens; assay: Validation: 7-day serum-free culture of diverse AML specimens (CD34+CD15− cells); type: cell-based; conditions: for preventing AML cell differentiation in vitro, compound alone: 17 AML specimens, UM729 1 μM
Method: The following flow cytometry-antibodies were used: […] Statistical analyses of all in vitro experiments were done using Graphpad Prism v 6.01. […] Normalized CD34^+CD15^- percentages (td7/t0) were analyzed by Wilcoxon matched pairs signed rank test. Bars and error bars represent means and standard deviations (SD), or standard errors of the mean (SEM), as specified. Extreme limiting dilution analysis software (Hu, […]: extreme limiting dilution analysis for comparing depleted and enriched populations in stem cell and other assays. Journal of immunological methods 347, 70-78 (2009); http://bioinf.wehi.edu.au/software/elda/) was used to estimate LSC frequencies with 95% confidence intervals. In cases where all mice were positive or negative, one-sided confidence intervals were calculated. Differences in LSC frequencies between culture conditions were analyzed by Chi-square test.

[4] = test system: AML cells (04H112); assay: Cell proliferation assay (CellTrace Violet); type: cell-based, human; conditions: 4-day culture; SR1 500 nM, UM729 1 μM
Method: CellTrace™ Violet (Invitrogen/Life Technologies C34557) was added at a final concentration of 3 μM to cell suspensions (10^7 cells/ml) containing SR1 (500 nM), UM729 (1 μM), both compounds, or vehicle DMSO (0.1%). CellTrace™ Violet labeled cells were stained with surface antibodies against human CD3, CD19, CD34, and CD33 on day 0, day 2, and day 4 prior to analysis on a BD Canto™ II flow cytometer. Data were analyzed using FlowJo™ version 7.6.5.

[5] = test system: leukemia stem cells (LSC) of primary human AML samples; assay: Xenotransplantation of 4-day cultured AML cells into NSG mice (engraftment, LSC frequency); type: in vivo
Text: NOD.Cg-Prkdc^scid II2rg^tm1Wjl/SzJ (NSG) mice were purchased from Jackson Laboratory® (Bar Harbor, Me.) and bred in a pathogen-free animal facility. All AML samples were transplanted via the tail vein into 8-12 week old sublethally irradiated (250 cGy, ^137Cs-gamma source) NSG mice. […] On day 4, equivalents of the three highest to cell doses from each of the 3-4 flasks per condition were transplanted. The technician injecting fresh and cultured cells in NSG mice was not informed about the experimental conditions. […] On average 150,000 gated events were acquired. Mice were considered positive if human cells represented >1% of the bone marrow cell population. Mice were excluded only in case of obvious non-leukemia related death (e.g. first two weeks after irradiation). To discriminate between engraftment of leukemic and normal cells present in unsorted patient samples only recipients with proportions of CD45^+CD33^+ or CD45^+CD34^+ cells higher than proportions of CD19^+CD33^- or CD3^+ were considered to harbor cells of leukemic origin. Statistical analyses of all in vitro experiments were done using Graphpad Prism v 6.01. […] Normalized CD34^+CD15^- percentages (td7/t0) were analyzed by Wilcoxon matched pairs signed rank test. Bars and error bars represent means and standard deviations (SD), or standard errors of the mean (SEM), as specified. Extreme limiting dilution analysis software (Hu, […]: extreme limiting dilution analysis for comparing depleted and enriched populations in stem cell and other assays. Journal of immunological methods 347, 70-78 (2009); http://bioinf.wehi.edu.au/software/elda/) was used to estimate LSC frequencies with 95% confidence intervals. In cases where all mice were positive or negative, one-sided confidence intervals were calculated. Differences in LSC frequencies between culture conditions were analyzed by Chi-square test.

[6] = test system: AML 05H163 cells; assay: 5-day culture of AML 05H163 with AhR suppressors plus UM729; type: cell-based, human; conditions: 05H163, 5 days
Method: AML cells were thawed in 37° C. water bath and 1:10 diluted in prewarmed Iscove's modified Dulbecco's medium (IMDM) containing 20% FBS and DNase 100 μg/ml. Cells were cultured in IMDM supplemented with 15% BIT (bovine serum albumin, insulin, transferrin, Stem Cell Technologies #09500), SCF 100 ng/ml (Shenandoah #100-04), FLT3L 50 ng/ml (Shenandoah #100-21), II-3 20 ng/ml (Shenandoah #100-80), G-CSF 20 ng/ml (Shenandoah #100-72), β-mercaptoethanol (10^−4M), gentamicin (50 μg/ml) and ciprofloxacin (10 μg/ml). […] When compounds were added to the culture medium, final DMSO concentrations were 0.1% in all in vitro experiments and 0.01% when cultured cells were transplanted into NSG-mice.
Flow cytometry was performed on an LSR™ II cytometer equipped with an HTS-device (BD Bioscience, Primary and Secondary screens and in vitro validation experiments) or on a BD Canto™ II cytometer (BD Bioscience, Xenotransplantation and CellTrace Violet™ experiments). Cells were stained for 30 minutes at 4° C. protected from light if not otherwise indicated (CellTrace Violet™ staining). The following flow cytometry-antibodies were used: CD45 Pacific Blue (BioLegend 304029), CD33 PE (BD Bioscience 555450), CD34 APC (BD Bioscience 555824), CD3 FITC (BD Bioscience 555332), CD19 PE-Cy7 (BD Bioscience 557835), CD15 PE (BD Bioscience 555401), and anti-mouse CD45.1 APC-efluor 730 (eBioscience 47-0453-82). […]

[7] = test system: AML cells; assay: Morphology analysis (cytospins, Wright stain); type: cell-based, human; conditions: 4-day culture; SR1 500 nM, UM729 1 μM
Method: 2-4×10^5 fresh and cultured cells were centrifuged onto cytospin slides, stained with Wright stain solution for 10 minutes and washed with PBS and water prior to analysis. Pictures of cytospins were taken with a Canon® EOS 5D camera connected to a Zeiss® Axio Imager microscope (40× objective).

[8] = test system: primary human AML cells; assay: Primary screen: differentiation of primary human AML cells in vitro (CD34/CD15, HTS flow cytometry)
Method: AML cells were thawed in 37° C. water bath and 1:10 diluted in prewarmed Iscove's modified Dulbecco's medium (IMDM) containing 20% FBS and DNase 100 μg/ml. […] When compounds were added to the culture medium, final DMSO concentrations were 0.1% in all in vitro experiments and 0.01% when cultured cells were transplanted into NSG-mice.
Compounds were tested at 2 μM (commercial libraries) or 1 μg/ml (Medicinal Chemistry Facility, IRIC). […] For validation experiments AML cells were grown in 384-well plates with 3-8 replicates per condition.
Flow cytometry was performed on an LSR™ II cytometer equipped with an HTS-device (BD Bioscience, Primary and Secondary screens and in vitro validation experiments) or on a BD Canto™ II cytometer (BD Bioscience, Xenotransplantation and CellTrace Violet™ experiments). Cells were stained for 30 minutes at 4° C. protected from light if not otherwise indicated (CellTrace Violet™ staining). […] CD34 intensities in flow cytometry plots were set at high levels on day 0 to allow tracing of non-predictable decreases of intensities during 7 days in culture.

[9] = biological target: T1, human AHR (Homo sapiens, UniProt P35869); conditions: Mezrich et al. 2012; cited from earlier work
T1 sequence (P35869 11-848): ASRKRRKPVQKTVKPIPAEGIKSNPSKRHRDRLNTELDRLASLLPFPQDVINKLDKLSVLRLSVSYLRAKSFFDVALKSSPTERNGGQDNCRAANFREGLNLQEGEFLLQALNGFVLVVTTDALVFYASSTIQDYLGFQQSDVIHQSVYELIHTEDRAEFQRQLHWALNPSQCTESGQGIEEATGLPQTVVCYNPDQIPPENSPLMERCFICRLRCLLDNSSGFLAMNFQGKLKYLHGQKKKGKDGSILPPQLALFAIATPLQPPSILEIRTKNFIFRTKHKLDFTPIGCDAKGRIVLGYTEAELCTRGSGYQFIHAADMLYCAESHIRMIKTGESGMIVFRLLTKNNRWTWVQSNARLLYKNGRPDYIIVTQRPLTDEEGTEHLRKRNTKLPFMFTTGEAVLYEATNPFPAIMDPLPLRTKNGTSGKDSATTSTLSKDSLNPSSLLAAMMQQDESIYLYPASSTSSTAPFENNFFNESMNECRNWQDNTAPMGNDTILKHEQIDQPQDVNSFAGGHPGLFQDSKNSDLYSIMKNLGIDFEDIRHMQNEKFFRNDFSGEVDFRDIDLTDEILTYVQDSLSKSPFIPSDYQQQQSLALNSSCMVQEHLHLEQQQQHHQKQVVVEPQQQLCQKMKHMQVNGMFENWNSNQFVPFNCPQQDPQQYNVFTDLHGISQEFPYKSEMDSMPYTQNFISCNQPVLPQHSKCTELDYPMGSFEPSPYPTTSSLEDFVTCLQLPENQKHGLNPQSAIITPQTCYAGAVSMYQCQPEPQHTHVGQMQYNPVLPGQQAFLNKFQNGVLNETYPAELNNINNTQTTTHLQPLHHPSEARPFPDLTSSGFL

[10] = at optimal concentration, compared to DMSO

In the case of COC(=O)c1ccc2c(c1)[nH]c1ncnc(NCCCN3CCCCC3)c12 [UM0125729, methyl 4-((3-(piperidin-1-yl)propyl)amino)-9H-pyrimido[4,5-b]indole-7-carboxylate], the “% increase CD34+CD15− (%) 2ndary screen” value [1, 10] is reported as 205.07%, the “% increase CD34+CD15− (cell counts) 2ndary screen” value [1, 10] is reported as 206.53% and the “2ndary screen criteria fulfilled” value ([1]; ≧50% increase CD34+CD15− (%) and cell counts and ≧50% gated cells in at least one dose) is reported as 1. For the same molecule, the “effect on AhR target genes (CYP1A1, CYP1B1, AHRR) expression” value ([2]; 24 h incubation, compared to DMSO, GAPDH control) was “no effect”, the “effect of adding UM729 to AhR suppressor-supplemented cultures” value ([3]; 7-day culture, CD34+CD15− percentage) was “enhanced the effect of SR1 in all specimens” and the “preventing AML cell differentiation in vitro, compound alone” value ([3]; 7-day culture) was “most samples responded”. The “CD34+CD38− and CD34+CD38+ compartments, SR1 and UM729 compared to DMSO” value ([3]; 7 days in culture) was “benefitted”, the “distribution of cell generations / number of early cell divisions” value [4] was “did not affect” and the “effect of adding UM729 to SR1- (or C05-) supplemented cultures on engraftment” value ([5]; 4-day culture, NSG mice, most samples) was “increased engraftment levels, but not LSC frequency”. For the same molecule, the “absolute numbers of CD34+CD15− cells, UM729 added compared to AhR suppressors alone” value [6] was “higher”, the “typical morphologic signs of differentiation on cytospins” value [7] was “rarely seen” and the “percent gated cells (viability)” value ([8]; 2 μM (commercial libraries) or 1 μg/ml (IRIC)) was 78.40%. For the same molecule, the “% increase CD34+ (cell counts)” value ([8]; compared to DMSO) was 26.44%, the “% increase CD34+CD15− (cell counts)” value ([8]; compared to DMSO) was 63.00% and the “% increase CD34+CD15− (%)” value ([8]; compared to DMSO ((compound − DMSO)/DMSO*100)) was 47.24%.
In the case of Clc1cc2c(cc1Cl)Oc1cc(Cl)c(Cl)cc1O2 [TCDD, 2,3,7,8-Tetrachlorodibenzodioxin], the “upregulation of AhR target genes AHRR and CYP1A1 upon 24 h in vitro culture” value [2] is reported as “marginally further induced”.
For CC(C)n1cnc2c(NCCc3ccc(O)cc3)nc(-c3csc4ccccc34)nc21 [SR1, StemRegenin 1], the “upregulation of AhR target genes AHRR and CYP1A1 upon 24 h in vitro culture” value [2] was “effectively antagonized”, the “samples with net expansion of CD34+CD15− cells” value ([3]; 7-day culture, compared to input) was 15/16 and the “increase in CD34+CD15− cell numbers” value ([3]; 7-day culture, maximum (AML 08H112)) was “up to 42 fold”. The “impact on CD34+CD15− cell numbers” value ([3]; 7-day culture, vs DMSO, P<0.0001 paired t-test) was “significant impact”, the “median CD34+CD15− percentage relative to uncultured cells” value ([3]; 7-day culture, SR1 0.75-1 μM, C05 2 μM, DMSO 19% / 22%) was 72% and the “preventing AML cell differentiation in vitro, compound alone” value ([3]; 7-day culture) was “superior to UM729”. For the same molecule, the “distribution of cell generations / number of early cell divisions” value [4] was “no difference”, the “total viable cells per flask (median±SD) following 4-day culture” value ([5]; cultures before transplantation, DMSO 6.2±3×10^6) was 4.8±2×10^6 and the “engraftment (average)” value ([5]; sample 05H163, progeny of 2×10^6 input cells, SR1-supplemented culture) was 50%. The “supporting LSC functional activity, SR1 alone versus UM729 alone” value ([5]; six samples, engraftment in NSG mice) was “superior to UM729 in supporting LSC functional activity in four of six samples; also recorded: equally efficacious in two samples” and the “engraftment levels compared to control DMSO” value ([5]; six samples, 4-day culture with SR1 0.5-1 μM, NSG mice) was “higher engraftment levels”.
For Cc1cc(C)c(/C=C2\C(=O)Nc3ccccc32)[nH]1 [SU5416, 3-(3,5-dimethyl-1H-pyrrol-2-ylmethylene)-1,3-dihydro-indole-2-one], the “activation of the human AHR” value [9] is listed as “potency approaching TCDD”.
